Consider one substance from patent US20120225123A1, “Use of Synergistic Combinations of an Avermectin and an Antineoplastic Compounds for the Treatment of Hematological Malignancies” (UNIVERSITY HEALTH NETWORK, priority 2009, published 2012).

In series [1] the test system is STAT1 expression in DU145 and PPC-1 cells. In words: Gene expression by Q-RT-PCR, DU145 and PPC-1. Type of series: cell-based, human. Here is the method:
(§1) Gene expression changes were evaluated in OCI AML2, 0937, HL60, DU145 and PPC-1 cells by real-time Q-RT-PCRas described previously^15, 47. The expression level of STAT1A, STAT1B, TRIM22, OAS1 and IFIT3 before and after incubation of leukemia cells with ivermectin was evaluated.

The subject of series [2] is OCI-AML2 cells. Nature of the series: Plasma membrane potential, DiBAC4(3) staining, OCI-AML2. The format is cell-based, human. To be noted: for plasma membrane polarization: 5 hours. On the procedure:
(§2) Plasma membrane potential was measured as previously described.^18 Briefly, cells treated with IVM or buffer control in RPM1, chloride replete medium (140 mM sodium chloride, 5 mM potassium chloride, 1 mM magnesium sulfate, 1.8 mM calcium acetate, 10 mM glucose, 10 mM HEPES and 0.1% (wt/v) BSA), or chloride free media where equimolar gluconate salts of sodium and potassium replaced the sodium chloride in the chloride replete medium. After incubation, cells were stained with DiBAC4(3) (final concentration 30 nM) and fluorescence determined by flow cytometry (BD FACS Canto, Becton Dickinson, San Jose, Calif.) (excitation=488 nm, emission=516 nm) Analysis was conducted using FACSDiva Software (BD Biosciences). Calibration curves were prepared using phosphate buffers with varying potassium ion concentrations as previously described.^18

The subject of series [3] is OCI-AML2 cells. In words: Cytosolic calcium, Indo-1 AM staining. The format is cell-based, human. Here is the method:
Changes in cytosolic calcium concentration were detected with the fluorescent dye, Indo-1 AM (final concentration 6 μM) as previously described. ^17
Plasma membrane hyperpolarization can lead to calcium influx^23. Therefore, the effects of IVM on calcium influx in leukemia cells was tested. OCI-AML2 cells were treated with IVM and the concentration of intracellular calcium was measured by staining cells with the ratiometric dye, Indo-1 AM.

Series [4] deals with STAT1 mRNA in U937 and HL60 leukemia cells. In words: Gene expression by Q-RT-PCR, U937 and HL60. Type of series: cell-based, human. On the procedure: as §1
For series [5], the system named is DU145 and PPC-1 cells; normal hematopoietic cells. In words: Reactive oxygen species, Carboxy-H2DCFDA staining, resistant cells. The format is cell-based, human.
Series [6] deals with U937 and TEX leukemia cells as well as primary AML cells. In words: Plasma membrane potential, DiBAC4(3) staining, sensitive cells. The format is cell-based, human. To be noted: after ivermectin treatment. On the procedure: as §2
In nematodes, increases in intracellular chloride after IVM treatment cause membrane hyperpolarization. Therefore, the effects of IVM on plasma and mitochondrial membrane polarization was evaluated in leukemia cells. […] At increasing times after incubation, plasma membrane potential was measured by staining cells with DiBAC4(3) and flow cytometric analysis.

Series [7] has as its system STAT1 and target genes IFIT3, OAS1 and TRIM22 in OCI-AML2 cells. In words: Gene expression by Q-RT-PCR, OCI-AML2. Type of series: cell-based, human. To be noted: after ivermectin treatment, Q-RT-PCR. Here is the method:
Leukemia cells were treated with buffer control or ivermectin (3 μM) for 30 and 40 hours. After treatment, cells were harvested, total RNA was isolated. Total RNA (10 μg) was used for cRNA amplification using the Invitrogen SuperScript kit (Life Technologies, Inc., Burlington, ON, Canada). Amplification and biotin labeling of antisense cRNA was performed using the Enzo® BioArray™ High Yield™ RNA transcript labeling kit (Enzo Diagnostics, Farmingdale, N.Y., USA), according to the manufacturer's instructions. RNA was then hybridized to Affymetrix HG U133 Plus 2.0 gene expression oligonucleotide arrays (Affymetrix, Santa Clara, Calif., USA). Microarray slides were scanned using the GeneArray 2500 scanner (Agilent Technologies). Microarray data were analyzed using GeneSpring GX v10.0 (Agilent), and lists of genes deregulated>2-fold after 30 and 40 hr ivermectin treatment were derived. Pathways and gene ontology analyses were carried out using Ingenuity Pathways Analysis (www.ingenuity.com); and the Database for Annotation, Visualization and Integrated Discovery (DAVID; http://david.abcc.ncifcrf.gov). […]
as §1

In another series the test system is primary AML samples. In words: Clonogenic (methylcellulose colony forming) assay, primary AML. The format is cell-based, human. To be noted: ivermectin 6 μM; in 3/6 primary AML samples. On the procedure: (§3) To assess clonogenic growth, primary AML cells or granulocyte colony-stimulating factor (G-CSF) mobilized PBSCs (4×10^5/mL) were treated with IVM or buffer control for 24 hours. After treatment, cells were washed and 10^5 cell/mL were plated in duplicate in MethoCult GF H4434 medium (StemCell Technologies, Vancouver, BC) containing 1% methycellulose in IMDM, 30% FCS, 1% bovine serum albumin, 3 U/mL of recombinant human erythropoietin, 10^−4 M of 2-mercaptoethanol, 2 mM of L-glutamine, 50 ng/mL of recombinant human stem cell factor, 10 ng/mL of GM-CSF, and 10 ng/mL of rh IL-3. Alternatively, primary cells were plated directly into MethoCult GF H4434 medium with ivermectin. Seven days (AML samples) or 14 days (normal PBCS) after plating, the number of colonies containing 10 or more cells for AML or over 100 cells for normal samples was counted as previously described.^14
(§4) Ivermectin was also evaluated in clonogenic assays in primary normal hematopoietic and AML cells. Ivermectin (6 μM) had minimal effects on the clonogenic growth of normal hematopoetic cells (n=3) with <15% reduction in clonogenic growth. In contrast, ivermectin reduced clonogenic growth by ≧40% in 3/6 primary AML samples (FIG. 1D). Similar effects were noted when primary cells were directly plated into clonogenic assays with ivermectin (FIG. 1G).

Another series relates to dogs. To be noted: oral; cited from earlier work.
Series [8] has as its system normal hematopoetic cells. Nature of the series: Clonogenic (methylcellulose colony forming) assay, normal cells. The format is cell-based, human. To be noted: ivermectin 6 μM, n=3. Here is the method:
as §3, §4

For the substance ivermectin, the STAT1 expression entry in [1] is recorded as “did not show changes in STAT1 expression”. Besides, the plasma membrane polarization result with OCI-AML2 cells [2] (chloride deplete buffer) is given as “caused plasma membrane depolarization”; in the series on OCI-AML2 cells [2] (chloride replete buffer), “induced plasma membrane hyperpolarization”. In addition, the plasma membrane potential result in the series on OCI-AML2 cells [2] (RPMI medium, as early as after 1 hour of treatment) is reported as “induced membrane hyperpolarization in a dose dependent manner”; in series [6], “demonstrated plasma membrane hyperpolarization”. The intracellular calcium result in the series with OCI-AML2 cells [3] is listed as “increased intracellular calcium”. Besides, the “STAT1 mRNA” value in series [4] was “demonstrated increased STAT1 mRNA”. The ROS generation entry in series [5] (DU145 and PPC-1 cells) is “did not show changes in ROS generation”; in series [5] (normal hematopoietic cells) it was “not normal hematopoietic cells”. The “expression of STAT1 and target genes” value in series [7] is “upregulation of STAT1 and target genes IFIT3, OAS1 and TRIM22”. Besides, the “reduction in clonogenic growth” value in the series with primary AML samples is listed as not below 40%; in series [8], less than 15%. In the series on dogs, the LD50 is listed as approximately 80 mg/kg.
